Measurements reported in patent publication US20080279897A1, “Method of Treating Cellular Damage” (MEDVET SCIENCE PTY. LTD., priority 2005, published 2008).

What was measured:
[1] = tested on: ICAM-1; experiment: Cell surface ICAM-1 expression in HUVEC by flow cytometry; type: cell-based, human
Description: (§1) Human umbilical vein EC (HUVEC) and bovine aortic EC (BAEC) were routinely cultured in this laboratory as previously described (Verrier et al., 2004, Circ. Res. 94:1515-1522). In all experiments EC ranging from passage 2-6 were used. For the experimental studies, EC were allowed to reach confluence in the regular growth media. Medium was then changed to (i) EBM (Clonetics, Walkersville, Md.) containing 1% FCS and 5.5 mM glucose (normal glucose, NG); (ii) NG medium supplemented with additional glucose to final concentration of 22 mM (high glucose); or (iii) NG medium containing 16.5 mM L-glucose or mannitol that served as an osmotic control for the high glucose medium.
(§2) After the indicated treatment, HUVECs were incubated with primary monoclonal antibodies to VCAM-1, ICAM-1 and E-selectin or an isotype-matched non-relevant antibody for 30 min. Cells were then incubated with FITC-conjugated secondary antibody and fixed in 2.5% formaldehyde. The expression of cell-surface adhesion molecules was measured as fluorescence intensity by use of a Coulter Epics Profile XL flow cytometer, as described previously (Verrier et al., 2004, supra).

[2] = tested on: NF-κB; experiment: NF-κB electrophoretic mobility shift assay in HUVEC; type: cell-based, human; details: 2.5 μM, gel shift
Description: (§3) Nuclear extracts were prepared from EC exposed to NG or HG with or without the indicated treatment. The double-stranded oligonucleotides used as probes in the experiments included 5′-[…]-3′ (SEQ ID NO: 1) which contains a consensus NF-κB binding site in E-selectin promoter (underlined). Gel mobility shift of a consensus NF-κB oligonucleotide was performed by incubating a ^32P-labelled NF-κB probe with 4 μg of nuclear proteins as described previously (Xia et al., 1998, supra).

[3] = tested on: VCAM-1; experiment: Cell surface VCAM-1 expression in HUVEC by flow cytometry; type: cell-based, human
Description: as §1, §2

[4] = tested on: PKC; experiment: PKC activity assay in situ in HUVEC; type: cell-based, human; details: 2.5 μmol/L, high glucose
Description: PKC activity was measured in situ as described previously (Xia et al., 1996, J. Clin. Invest 98:2018-2026). Briefly, cells were seeded in 24-well plates and exposed to NG or HG for 3 days. After the indicated treatments, total PKC activity was then determined in permeabilized cells in the presence of 10 μM [γ^32P]ATP (5000 cpm/pmol) and the PKC-specific peptide substrate (RKRTLRRL, 200 μM). The activity was then quantified by scintillation counting and normalized to total protein levels.

[5] = tested on: E-selectin; experiment: Cell surface E-selectin expression in HUVEC by flow cytometry; type: cell-based, human; details: for effect on E-selectin expression: 5 μM for 6 hrs
Description: as §1, §2

[6] = tested on: SphK; experiment: SphK activity in HUVEC; type: cell-based, human; details: for effect on SphK activity: 22 mmol/L, osmotic control; for effect on high glucose-induced increases in SphK activity: PD98059 10 μM, U0126 2 μM
Description: as §1, with “([…]” for “(Verrier”, “medium. As described previously (Xia et al., 1999, J. Biol. […] The formation of S1P in vivo was measured in the permeabilized cells as previously described (Xia et al., 1998, Proc. Natl. Acad. Sci. U.S.A 95:14196-14201).” for “medium.”

[7] = tested on: SphK; experiment: SphK activity in BAEC (parental or transfected); type: cell-based, bovine; details: for effect on SphK activity: BAEC, 22 mmol/L, osmotic control
Description: as §1
(§4) FLAG-tagged human wild-type SphK1 cDNA and the dominant negative SphK1^G82D were sub-cloned into pcDNA3 plasmids (Invitrogen, Melbourne, Australia) as previous described (Pitson et al., 2000, J. Biol. Chem. 275:33945-33950). Lipofectamine 2000 (Invitrogen) mediated transfection was performed in BAEC according to the manufacturer's protocols. For stable expression, the transfectants were selected in medium containing 800 μg/ml G418 (Invitrogen). The resulting non-clonal pools of G418-resistant transfected cells were then collected and used to avoid clonal variability. The expression of FLAG-tagged transgenes was determined by Westernblot assay with the antibodies against FLAG (M2, Sigma, Clayton, Australia).
(§5) As described previously (Xia et al., 1999, J. Biol. Chem. 274:34499-34505), SphK activity was routinely determined using D-erythro-sphingosine (Biomol, Plymouth Meeting, Pa.) and [γ^32P]ATP (Geneworks, Adelaide, Australia) as substrates, and defined as picomoles of S1P formed per min per mg protein. The formation of S1P in vivo was measured in the permeabilized cells as previously described (Xia et al., 1998, Proc. Natl. Acad. Sci. U.S.A 95:14196-14201).

[8] = tested on: S1P formation; experiment: S1P formation in endothelial cells; type: cell-based, human; details: 22 mmol/L
Description: as §1, §5

[9] = tested on: U937 cells adhering to HUVEC; experiment: Adherence of U937 cells to HUVEC; type: cell-based, human; details: 50 ng/ml
Description: (§6) U937 cells (CRL 1593.2; ATCC) were grown in RPMI-1640 medium (GIBCO BRL) containing 10% FCS, collected by low-speed centrifugation and resuspended at a density of 2×10^5 cells/ml in medium without FCS. EC were seeded into 24-well plates and cultured with NG or HG medium for 3 days after confluence. After washing twice with warm RPMI-1640 medium, the U937 cell suspension (100 μl/well) was added and incubated for 30 minutes at 37° C. Non-adherent cells were removed by rinsing the plates three times with PBS, and the number of adherent cells was then counted under microscopy with at least 6 fields per well culture being quantified.

[10] = tested on: U937 cells adhering to BAEC; experiment: Adherence of U937 cells to transfected BAEC; type: cell-based, bovine; details: stably transfected BAEC, 22 mM glucose 3 days
Description: as §4, §6

[11] = tested on: NF-κB; experiment: NF-κB electrophoretic mobility shift assay in BAEC; type: cell-based, bovine; details: gel shift
Description: as §4, §3

[12] = 2.5 μmol/L, 3 days high glucose

CCCCCCCCCCCCC/C=C/[C@@H](O)[C@H](CO)N(C)C [DMS, N′N′-dimethylsphingosine]
effect on high glucose-induced increase in ICAM-1 expression [1, 12]: completely abolished
effect on high glucose-induced NF-κB activation [2]: completely inhibited
effect on high glucose-induced increase in VCAM-1 expression [3, 12]: completely abolished
inhibitory effect on PKC activity [4]: no inhibitory effect
effect on high glucose-induced increase in E-selectin expression [5, 12]: completely abolished
inhibition of high glucose-induced SphK activity ([6]; 2.5 μmol/L): capable of inhibiting

CN(C)CCCn1cc(C2=C(c3c[nH]c4ccccc34)C(=O)NC2=O)c2ccccc21 [GF109203X]
attenuation of high glucose-induced increases in SphK activity ([6]; 5 μM, 30 min): ~50%

O=C[C@@H](O)[C@H](O)[C@@H](O)[C@@H](O)CO [L-glucose]
effect on SphK activity [7]: neither mannitol nor L-glucose at 22 mmol/L had any significant effects
effect on S1P production [8]: fails to activate sphingosine kinase or effect S1P production
effect on SphK activity [6]: neither mannitol nor L-glucose at 22 mmol/L had any significant effects

COc1cccc(-c2cc(=O)c3ccccc3o2)c1N [PD98059]
effect on high glucose-induced increases in SphK activity ([6]; 30 min): completely prevented

CCCCCCCCCCCCC/C=C/[C@@H](O)[C@@H](N)COP(=O)(O)O [S1P, sphingosine-1-phosphate]
effect on E-selectin expression [5]: significant increase

N#CC(=C(/N)Sc1ccccc1N)/C(C#N)=C(\N)Sc1ccccc1N [U0126]
effect on high glucose-induced increases in SphK activity ([6]; 30 min): completely prevented

CCCCCCCCCCCCCCC[C@@H](O)[C@@H](N)COP(=O)(O)O [dihydro-S1P, sphinganine-1-phosphate]
effect on E-selectin expression [5]: no significant effect

OC[C@@H](O)[C@@H](O)[C@H](O)[C@H](O)CO [mannitol]
effect on SphK activity [7]: neither mannitol nor L-glucose at 22 mmol/L had any significant effects
effect on S1P production [8]: fails to activate sphingosine kinase or effect S1P production
effect on SphK activity [6]: neither mannitol nor L-glucose at 22 mmol/L had any significant effects

lysophosphatidic acid [LPA]
effect on E-selectin expression [5]: significant increase

pertussis toxin
inhibition of high glucose-induced expression of ICAM-1 ([1]; 50 ng/ml, vs untreated cells): 42%
inhibition of high glucose-induced expression of VCAM-1 ([3]; 50 ng/ml, vs untreated cells): 30%
inhibition of high glucose-induced expression of E-selectin ([5]; 50 ng/ml, vs untreated cells): 35%
inhibition of LPA-induced E-selectin expression ([5]; 5 μM LPA 6 hrs, PTX 50 ng/ml): completely inhibited
inhibition of S1P-induced E-selectin expression ([5]; 5 μM S1P 6 hrs, PTX 50 ng/ml): 32%
number of leukocytes adhering to high glucose-stimulated EC [9]: partially, but significantly, reduced

B1: SphK^WT: FLAG-tagged wild-type human SphK1 stably overexpressed in BAEC by transfection (protein, UniProt Q9NYA1 1-384, looked up)
Sphingosine kinase 1: MDPAGGPRGVLPRPCRVLVLLNPRGGKGKALQLFRSHVQPLLAEAEISFTLMLTERRNHARELVRSEELGRWDALVVMSGDGLMHEVVNGLMERPDWETAIQKPLCSLPAGSGNALAASLNHYAGYEQVTNEDLLTNCTLLLCRRLLSPMNLLSLHTASGLRLFSVLSLAWGFIADVDLESEKYRRLGEMRFTLGTFLRLAALRTYRGRLAYLPVGRVGSKTPASPVVVQQGPVDAHLVPLEEPVPSHWTVVPDEDFVLVLALLHSHLGSEMFAAPMGRCAAGVMHLFYVRAGVSRAMLLRLFLAMEKGRHMEYECPYLVYVPVVAFRLEPKDGKGVFAVDGELMVSEAVQGQVHPNYFWMVSGCVEPPPSWKPQQMPPPEEPL
modifications: FLAG tag
notes: FLAG-tagged wild-type human SphK1 stably overexpressed in BAEC by transfection
basal level of SphK activity, higher than control cells ([7]; stably transfected BAEC): 10 fold
number of leukocytes adhering to high glucose-stimulated BAEC [10]: markedly enhanced

B2: SphK^G82D: point mutation of human SphK1, dominant-negative mutant, stably expressed in BAEC by transfection (protein, UniProt Q9NYA1 1-384, looked up, variant G82D)
Sphingosine kinase 1: MDPAGGPRGVLPRPCRVLVLLNPRGGKGKALQLFRSHVQPLLAEAEISFTLMLTERRNHARELVRSEELGRWDALVVMSGDDLMHEVVNGLMERPDWETAIQKPLCSLPAGSGNALAASLNHYAGYEQVTNEDLLTNCTLLLCRRLLSPMNLLSLHTASGLRLFSVLSLAWGFIADVDLESEKYRRLGEMRFTLGTFLRLAALRTYRGRLAYLPVGRVGSKTPASPVVVQQGPVDAHLVPLEEPVPSHWTVVPDEDFVLVLALLHSHLGSEMFAAPMGRCAAGVMHLFYVRAGVSRAMLLRLFLAMEKGRHMEYECPYLVYVPVVAFRLEPKDGKGVFAVDGELMVSEAVQGQVHPNYFWMVSGCVEPPPSWKPQQMPPPEEPL
SphK activation under high glucose conditions ([7]; BAEC expressing the mutant, 22 mM glucose 3 days): no SphK activation
number of leukocytes adhering to high glucose-stimulated BAEC [10]: profoundly attenuated
high glucose-induced NF-κB activation in cells expressing the mutant [11]: incapable of activating NF-κB
